Results on 16 compounds are retold here after PMC6832265 (Molecules, 2019).

What is called IC50 is the concentration that gives 50% inhibition. What is called Kd is a measure of binding affinity in units of concentration. A word on the CC50: it is the concentration giving 50% cytotoxicity.

Where two headings read alike, the source gives them in different places.

In data set [1] the target is T1, Tdp1 (Homo sapiens, UniProt Q9NUW8).
T1 construct: made in house; host or cells: Escherichia coli
Nature of the data set: Real-time detection of Tdp1 activity (5'-FAM/3'-BHQ1 oligonucleotide biosensor). The class given is biochemical. The conditions noted are these: 1.5 nM Tdp1, 50 nM oligonucleotide substrate, 26 °C. Put shortly: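 Recombinant human Tdp1 (E. coli-expressed, 1.5 nM) with 50 nM 16-mer ssDNA 5'-FAM/3'-BHQ1 biosensor in 50 mM Tris-HCl, 50 mM NaCl, 7 mM β-mercaptoethanol, 26 °C; fluorescence (Ex485/Em520) read each minute. Inhibition from linear-phase slope (0–7 min) vs 1.5% DMSO control; IC50 from six-point curves, ≥2 independent experiments.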

In data set [2] the target is T2, recombinant Tdp1 (residues 149–608) (Homo sapiens, UniProt Q9NUW8).
T2 construct: recombinant Tdp1 (residues 149–608) was obtained from GenScript; host or cells: E. coli BL21(DE3)
Nature of the data set: Intrinsic tryptophan fluorescence quenching binding assay. As to conditions: 10 µM Tdp1, 20 mM Tris, 250 mM NaCl, pH 8; triplicate. As for the experimental part:
The binding of the synthesized compounds to recombinant Tdp1 was also tested (Table 1 and Table 2) by using an intrinsic tryptophan fluorescence quenching assay. […] As our compounds are aromatic in nature, there is a possibility that they may bind to both the active site as well as non-specifically to the DNA/peptide binding pockets. Nonetheless, our results confirmed that the compounds were indeed binders of Tdp1, thus complementing our inhibition data.
pET-28a(+) plasmid encoding recombinant Tdp1 (residues 149–608) was obtained from GenScript. E. coli BL21(DE3) was used for recombinant protein production. Protein production was induced with 1 mM IPTG at 28 °C with overnight incubation. Tdp1 was purified using affinity and size exclusion chromatography. Fluorescence was measured using a PerkinElmer EnSpire Multimode Reader. Tdp1 concentration was 10 μM with varying compound concentrations. The buffer was 20 mM Tris and 250 mM NaCl (pH 8). The excitation wavelength was 280 nm and intrinsic fluorescence was measured at 350 nm. Control experiments with Tdp1 or the compound on its own were also conducted. Background fluorescence arising from the compounds was subtracted from the final spectrum. The total volume per well was 30 μL. The dissociation constant (KD) was calculated using Equation (1), which takes non-specific binding into account. y = Bmaxx/(KD + x) + Nsx(1) where y denotes the changes in fluorescence intensity; x denotes the concentration of the compounds; Bmax denotes the maximum changes in fluorescence intensity; and Ns is a scaling factor for non-specific binding. Experiments were conducted in triplicate.

The nature of data set [3]: MTT test, intrinsic cytotoxicity. As to conditions: human, HeLa cells (cervical carcinoma), compound alone. Format: cell-based. From the text: First, we studied the intrinsic cytotoxicity of the compounds against HeLa cells (cervical carcinoma). For experiments on cells, we selected compounds which combined high inhibitory activity with good chemical accessibility. The MTT test data are shown in Figure 4 for compounds from both the heteroarylidene-hydrazinotiazole and arylidene-hydrazinotiazole subclasses. […] Heteroarylidene-hydrazinothiazole derivatives (+)- and (−)-16f, containing a bromothiophene residue, also have low toxicity (CC50 about 80 µM), while the 16d pair, containing a nitro group that is a known toxicophore, suppressed cell growth at a concentration of 20 µM.
Analysis of the intrinsic toxicity of the compounds was examined against human cell line HeLa (cervical cancer) using a standard MTT test by colorimetric measurement of the amount of formazan converted from 3-(4,5-dimethylthiazol-2-yl)-2,5-diphenyl-2H-tetrazolium bromide in cells exposed to the compounds. […] After formation of a 30–50% monolayer, tested compounds were added to the medium (the volume of added reagents was 1/100 of the total volume of the culture medium, the amount of DMSO was 1% of the final volume), and the cell culture was monitored for three days. […]
For orientation: Tetrazolium assays rely on reduction of a dye to a coloured formazan, in cell work by metabolically active cells.

In data set [4] the target is T1, Tdp1. As to conditions: read-out: IC50; cited from earlier work.

T1 sequence (Q9NUW8 whole entry): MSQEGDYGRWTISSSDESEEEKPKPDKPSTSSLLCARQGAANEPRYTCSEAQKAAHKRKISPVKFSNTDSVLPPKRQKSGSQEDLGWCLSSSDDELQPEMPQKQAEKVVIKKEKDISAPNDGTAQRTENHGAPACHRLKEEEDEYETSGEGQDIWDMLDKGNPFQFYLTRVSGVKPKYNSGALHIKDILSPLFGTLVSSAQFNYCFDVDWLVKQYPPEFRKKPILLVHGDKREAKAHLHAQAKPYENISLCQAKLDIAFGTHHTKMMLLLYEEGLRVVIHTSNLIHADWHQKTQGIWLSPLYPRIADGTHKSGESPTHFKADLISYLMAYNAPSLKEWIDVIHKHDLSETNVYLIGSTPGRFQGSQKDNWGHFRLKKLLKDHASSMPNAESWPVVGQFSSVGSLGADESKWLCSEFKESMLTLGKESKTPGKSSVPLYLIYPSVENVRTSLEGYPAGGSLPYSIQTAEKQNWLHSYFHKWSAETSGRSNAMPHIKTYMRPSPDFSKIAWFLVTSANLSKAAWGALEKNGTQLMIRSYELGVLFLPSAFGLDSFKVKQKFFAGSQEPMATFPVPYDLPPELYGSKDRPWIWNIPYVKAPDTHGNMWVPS
T2 sequence (Q9NUW8 149-608): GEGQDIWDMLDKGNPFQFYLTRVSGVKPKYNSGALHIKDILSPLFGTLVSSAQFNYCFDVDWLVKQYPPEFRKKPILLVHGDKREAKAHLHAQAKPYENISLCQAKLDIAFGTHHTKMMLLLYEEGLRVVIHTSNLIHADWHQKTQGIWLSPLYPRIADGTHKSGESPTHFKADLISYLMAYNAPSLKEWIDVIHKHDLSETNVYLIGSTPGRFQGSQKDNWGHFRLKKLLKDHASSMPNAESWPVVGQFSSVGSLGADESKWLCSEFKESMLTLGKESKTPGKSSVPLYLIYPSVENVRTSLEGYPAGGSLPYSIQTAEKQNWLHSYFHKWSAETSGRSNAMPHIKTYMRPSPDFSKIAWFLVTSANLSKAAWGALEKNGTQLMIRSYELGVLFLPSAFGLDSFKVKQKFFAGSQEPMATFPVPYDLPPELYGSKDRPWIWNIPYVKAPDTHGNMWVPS

With `CC(=O)C1=C(O)C=C2Oc3c(-c4csc(N/N=C/c5ccc[nH]5)n4)c(O)c(C)c(O)c3[C@]2(C)C1=O` [(−)-16m, (2S)-4-Acetyl-5,11,13-trihydroxy-2,12-dimethyl-10-{2-[(E)-2-[(1H-pyrrol-2-yl)methylidene] hydrazin-1-yl]-1,3-thiazol-4-yl}-8-oxatricyclo[7.4.0.0^2,7]trideca-1(9),4,6,10,12-pentaen-3-one], the IC50 in data set [1] came out at 18 ± 1 nM. For the same compound, in data set [2], the Kd was determined as 354000 ± 40000 nM.

As for `CC(=O)C1=C(O)C=C2Oc3c(-c4csc(N/N=C/c5ccc(Br)s5)n4)c(O)c(C)c(O)c3[C@@]2(C)C1=O` [(+)-16f, (2R)-4-Acetyl-5,11,13-trihydroxy-2,12-dimethyl-10-{2-[(E)-2-[(5-bromothiophen-2-yl)methylidene]hydrazin-1-yl]-1,3-thiazol-4-yl}-8-oxatricyclo[7.4.0.0^2,7]trideca-1(9),4,6,10,12-pentaen-3-one], in data set [3], the cytotoxic concentration (CC50) at 3 days is about 80000 nM. Moreover, in data set [1], the 50% inhibitory concentration (IC50) amounted to 88 ± 3 nM. For the same compound, the Kd in data set [2] worked out at 95000 ± 11000 nM.

Compound `CC(=O)C1=C(O)C=C2Oc3c(-c4csc(N/N=C/c5ccco5)n4)c(O)c(C)c(O)c3[C@@]2(C)C1=O` [(+)-16k, (2R)-4-Acetyl-5,11,13-trihydroxy-2,12-dimethyl-10-{2-[(E)-2-[(furan-2-yl)methylidene] hydrazin-1-yl]-1,3-thiazol-4-yl}-8-oxatricyclo[7.4.0.0^2,7]trideca-1(9),4,6,10,12-pentaen-3-one] registered a concentration for half-maximal inhibition (IC50) in data set [1] of 120 ± 15 nM. For the same compound, in data set [2], the Kd worked out at 67000 ± 9000 nM.

On to `COc1ccc(/C=N/Nc2nc(-c3c(O)c(C)c(O)c4c3OC3=CC(O)=C(C(C)=O)C(=O)[C@@]34C)cs2)cc1COc1ccc(F)cc1` [(+)-17a, (2R)-4-Acetyl-10-{2-[(E)-2-({3-[(4-fluorophenoxy)methyl]-4-methoxyphenyl}methylidene)hydrazin-1-yl]-1,3-thiazol-4-yl}-5,11,13-trihydroxy-2,12-dimethyl-8-oxatricyclo[7.4.0.0^2,7]trideca-1(9),4,6,10,12-pentaen-3-one], for which the concentration for half-maximal inhibition (IC50) in data set [1] came to 26 ± 8 nM. Moreover, in data set [2], the Kd was determined as 212000 ± 25000 nM.

In data set [1], `CC(=O)C1=C(O)C=C2Oc3c(-c4csc(N/N=C/c5cccs5)n4)c(O)c(C)c(O)c3[C@]2(C)C1=O` [(−)-16g, (2S)-4-Acetyl-5,11,13-trihydroxy-2,12-dimethyl-10-{2-[(E)-2-[(thiophen-2-yl)methylidene]hydrazin-1-yl]-1,3-thiazol-4-yl}-8-oxatricyclo[7.4.0.0^2,7]trideca-1(9),4,6,10,12-pentaen-3-one] registered an IC50 of 169 ± 6 nM. The Kd in data set [2] came to 281000 ± 25000 nM.

The compound `CC(=O)C1=C(O)C=C2Oc3c(-c4csc(N/N=C/c5ccco5)n4)c(O)c(C)c(O)c3[C@]2(C)C1=O` [(−)-16k, (2S)-4-Acetyl-5,11,13-trihydroxy-2,12-dimethyl-10-{2-[(E)-2-[(furan-2-yl)methylidene] hydrazin-1-yl]-1,3-thiazol-4-yl}-8-oxatricyclo[7.4.0.0^2,7]trideca-1(9),4,6,10,12-pentaen-3-one] yielded a concentration for half-maximal inhibition (IC50) in data set [1] of 46 ± 24 nM. For the same compound, in data set [2], the equilibrium dissociation constant (Kd) came to 250000 ± 24000 nM.

The compound `CC(=O)C1=C(O)C=C2Oc3c(-c4csc(N/N=C/c5ccoc5)n4)c(O)c(C)c(O)c3[C@]2(C)C1=O` [(−)-16l, (2S)-4-Acetyl-5,11,13-trihydroxy-2,12-dimethyl-10-{2-[(E)-2-[(furan-3-yl)methylidene] hydrazin-1-yl]-1,3-thiazol-4-yl}-8-oxatricyclo[7.4.0.0^2,7]trideca-1(9),4,6,10,12-pentaen-3-one] yielded an IC50 in data set [1] of 178 ± 4 nM. Further, the dissociation constant (Kd) in data set [2] was determined as 233000 ± 9000 nM.

Compound `COc1ccc(/C=N/Nc2nc(-c3c(O)c(C)c(O)c4c3OC3=CC(O)=C(C(C)=O)C(=O)[C@]34C)cs2)cc1COc1ccc(F)c(Cl)c1` [(−)-17d, (2S)-4-Acetyl-10-{2-[(E)-2-({3-[(3-chloro-4-fluorophenoxy)methyl]-4-methoxyphenyl}methylidene)hydrazin-1-yl]-1,3-thiazol-4-yl}-5,11,13-trihydroxy-2,12-dimethyl-8-oxatricyclo[7.4.0.0^2,7]trideca-1(9),4,6,10,12-pentaen-3-one] came in with an IC50 in data set [1] of 18 ± 1 nM. Further, the Kd in data set [2] was 76000 ± 5000 nM.

As to `COc1ccc(/C=N/Nc2nc(-c3c(O)c(C)c(O)c4c3OC3=CC(O)=C(C(C)=O)C(=O)[C@@]34C)cs2)cc1CN1CCN(c2ccc(F)cc2)CC1` [(+)-17i, (2R)-4-Acetyl-10-{2-[(E)-2-[(3-{[4-(4-fluorophenyl)piperazin-1-yl]methyl}-4-methoxyphenyl)methylidene]hydrazin-1-yl]-1,3-thiazol-4-yl}-5,11,13-trihydroxy-2,12-dimethyl-8-oxatricyclo[7.4.0.0^2,7]trideca-1(9),4,6,10,12-pentaen-3-one], in data set [1], inhibition was half-maximal at 80 ± 7 nM (IC50). The Kd in data set [2] came out at 161000 ± 22000 nM.

On to `CC(=O)C1=C(O)C=C2Oc3c(-c4csc(N/N=C/c5ccncc5)n4)c(O)c(C)c(O)c3[C@@]2(C)C1=O` [(+)-16a, 4-[(1E)-(2-{4-[(1R)-12-Acetyl-3,5,11-trihydroxy-1,4-dimethyl-13-oxo-8-oxatricyclo[7.4.0.0^2,7]trideca-2(7),3,5,9,11-pentaen-6-yl]-1,3-thiazol-2-yl}hydrazin-1-ylidene)methyl]pyridin-1-ium bromide], for which the IC50 in data set [1] was determined as 160 ± 16 nM. Further, the dissociation constant (Kd) in data set [2] came to 139000 ± 32000 nM.

Regarding `CC1(C)[C@H]2CC=C(COc3ccc4c5c(c(=O)oc4c3)CCC5)[C@@H]1C2` [compound 7], the IC50 in data set [4] was 670 nM.

As to “(2R)-4-Acetyl-5,11,13-trihydroxy-2,12-dimethyl-10-{2-[(E)-2-[(thiophen-3-yl)methylidene] hydrazin-1-yl]-1,3-thiazol-4-yl}-8-oxatricyclo[7.4.0.0^2,7]trideca-1(9),4,6,10,12-pentaen-3-one amine [(+)-16j]”, the IC50 in data set [1] worked out at 107 ± 31 nM. Further, the Kd in data set [2] is 65000 ± 7000 nM.

`CC(=O)C1=C(O)C=C2Oc3c(-c4csc(N/N=C/c5cc(Br)cs5)n4)c(O)c(C)c(O)c3[C@]2(C)C1=O` [(−)-16h, (2S)-4-Acetyl-5,11,13-trihydroxy-2,12-dimethyl-10-{2-[(E)-2-[(4-bromothiophen-2-yl)methylidene]hydrazin-1-yl]-1,3-thiazol-4-yl}-8-oxatricyclo[7.4.0.0^2,7]trideca-1(9),4,6,10,12-pentaen-3-one] yielded an IC50 in data set [1] of 56 ± 4 nM. Moreover, in data set [2], the Kd came out at 355000 ± 50000 nM.

With `CCCCN(CCCC)CC(=O)Nc1cc(C(F)(F)F)cc2c1SSSSS2` [compound 2], the IC50 in data set [4] was 200 nM.

Compound “(2R)-4-Acetyl-10-{2-[(E)-2-({3-[(3,4-difluorophenoxy)methyl]-4-methoxyphenyl}methylidene)hydrazin-1-yl]-1,3-thiazol-4-yl}-5,11,13-trihydroxy-2,12-dimethyl-8-oxatricyclo[7.4.0.0^2,7]trideca-1(9),4,6,10,12-pentaen-3-one [(+)-17e]” yielded a 50% inhibitory concentration (IC50) in data set [1] of 64 ± 6 nM. In data set [2], the Kd amounted to 213000 ± 4000 nM.

In data set [1], `CC(=O)C1=C(O)C=C2Oc3c(-c4csc(N/N=C/c5ccccn5)n4)c(O)c(C)c(O)c3[C@@]2(C)C1=O` [(+)-16b, 2-[(1E)-(2-{4-[(1R)-12-Acetyl-3,5,11-trihydroxy-1,4-dimethyl-13-oxo-8-oxatricyclo[7.4.0.0^2,7]trideca-2(7),3,5,9,11-pentaen-6-yl]-1,3-thiazol-2-yl}hydrazin-1-ylidene)methyl]pyridin-1-ium bromide] showed an IC50 of 492 ± 88 nM. For the same compound, the dissociation constant (Kd) in data set [2] worked out at 77000 ± 24000 nM.
